Reference: patent US20250002487A1, “HETEROCYCLIC COMPOUNDS AND USES THEREOF” (Ventus Therapeutics U.S., Inc., priority 2021, published 2025)

target: human-cGAS (h-cGAS) (Homo sapiens, UniProt Q8N884); assay: hcGAS Kinase-Glo Assay; assay type: biochemical; conditions: 40 nM h-cGAS, 100 μM ATP, 100 μM GTP, 25 nM dsDNA, 3 h incubation, read-out: hcGAS potency IC50
In short: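 Kinase-Glo luminescent read-out of human cGAS activity, following the published Lama et al. (2019) protocol with slightly altered conditions. Inhibition reported as IC50.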

Sequence of human-cGAS (h-cGAS) (Q8N884 whole entry): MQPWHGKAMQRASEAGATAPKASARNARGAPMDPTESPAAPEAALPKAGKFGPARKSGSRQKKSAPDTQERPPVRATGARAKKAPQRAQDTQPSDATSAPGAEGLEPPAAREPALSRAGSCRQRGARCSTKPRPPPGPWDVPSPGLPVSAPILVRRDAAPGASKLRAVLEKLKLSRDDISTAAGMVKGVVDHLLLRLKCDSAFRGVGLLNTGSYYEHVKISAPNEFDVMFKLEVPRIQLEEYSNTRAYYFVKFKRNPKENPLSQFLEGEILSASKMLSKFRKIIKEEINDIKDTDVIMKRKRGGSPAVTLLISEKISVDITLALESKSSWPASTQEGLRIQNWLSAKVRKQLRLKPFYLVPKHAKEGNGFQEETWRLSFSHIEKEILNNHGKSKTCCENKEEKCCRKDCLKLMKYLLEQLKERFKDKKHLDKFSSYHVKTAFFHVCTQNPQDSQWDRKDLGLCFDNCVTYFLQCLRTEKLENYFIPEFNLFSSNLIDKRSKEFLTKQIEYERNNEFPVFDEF

IC50 | SMILES
500 to 1000 nM | O=C(Nc1nnc(-c2ccccn2)s1)c1onc2ccccc12 [Compound 21, N-(5-(pyridin-2-yl)-1,3,4-thiadiazol-2-yl)benzo[c]isoxazole-3-carboxamide]
≥ 1000 nM | CSc1nnc(NC(=O)c2nnc3n2CCN(C(=O)OC(C)(C)C)C3)s1 [Compound 98, tert-butyl 3-{[5-(methylsulfanyl)-1,3,4-thiadiazol-2-yl]carbamoyl}-5H,6H,8H-[1,2,4]triazolo[4,3-a]pyrazine-7-carboxylate]
100 to 500 nM | COc1ccccc1-c1cc(C(=O)Nc2nnc(SC)s2)oc(=O)c1 [Compound 244, 4-(2-methoxyphenyl)-N-(5-methylsulfanyl-1,3,4-thiadiazol-2-yl)-6-oxo-pyran-2-carboxamide]
500 to 1000 nM | CSc1nnc(NC(=O)c2nnc(N(C)Cc3ccccc3)o2)s1 [Compound 113, 5-[benzyl(methyl)amino]-N-[5-(methylsulfanyl)-1,3,4-thiadiazol-2-yl]-1,3,4-oxadiazole-2-carboxamide]
100 to 500 nM | O=C(Nc1nnc(-c2ccccc2Cl)s1)c1nnc(N2CCC[C@@H]2c2ccccc2)o1 [Compound 118, (R)-N-(5-(2-chlorophenyl)-1,3,4-thiadiazol-2-yl)-5-(2-phenylpyrrolidin-1-yl)-1,3,4-oxadiazole-2-carboxamide]
100 to 500 nM | CSc1nnc(NC(=O)c2cc(-c3ccc(C)cc3)cc(=O)o2)s1 [Compound 250, N-(5-methylsulfanyl-1,3,4-thiadiazol-2-yl)-6-oxo-4-(p-tolyl)pyran-2-carboxamide]
500 to 1000 nM | CSc1nnc(NC(=O)c2cncc(-c3cccs3)c2)s1 [Compound 96, N-(5-(methylthio)-1,3,4-thiadiazol-2-yl)-5-(thiophen-2-yl)-nicotinamide]
≥ 1000 nM | CSc1nnc(NC(=O)c2nc(-c3cccs3)oc2C)s1 [Compound 77, 5-methyl-N-(5-(methylthio)-1,3,4-thiadiazol-2-yl)-2-(thiophen-2-yl)oxazole-4-carboxamide]
100 to 500 nM | CSc1nnc(NC(=O)c2cc(-c3ccc4ccccc4c3)cc(=O)o2)s1 [Compound 245, N-(5-methylsulfanyl-1,3,4-thiadiazol-2-yl)-4-(2-naphthyl)-6-oxo-pyran-2-carboxamide]
500 to 1000 nM | CSc1nnc(NC(=O)c2cc(-c3cc(F)ccc3F)no2)s1 [Compound 47, 3-(2,5-difluorophenyl)-N-(5-(methylthio)-1,3,4-thiadiazol-2-yl)isoxazole-5-carboxamide]
≥ 1000 nM | CSc1nnc(NC(=O)c2noc(N3CCCCC3)n2)s1 [Compound 101, N-[5-(methylthio)-1,3,4-thiadiazol-2-yl]-5-(piperidin-1-yl)-1,2,4-oxadiazole-3-carboxamide]
500 to 1000 nM | CSc1nnc(NC(=O)c2cc(C(C)C)no2)s1 [Compound 82, 3-isopropyl-N-(5-(methylthio)-1,3,4-thiadiazol-2-yl)isoxazole-5-carboxamide]
500 to 1000 nM | CSc1nnc(NC(=O)c2cc(-c3cnc4ccccc4c3)cc(=O)o2)s1 [Compound 255, N-(5-methylsulfanyl-1,3,4-thiadiazol-2-yl)-6-oxo-4-(3-quinolyl)pyran-2-carboxamide]
100 to 500 nM | CCc1cc(C(=O)Nc2nnc(-c3ccccc3Cl)s2)on1 [Compound 33, N-(5-(2-chlorophenyl)-1,3,4-thiadiazol-2-yl)-3-ethylisoxazole-5-carboxamide]
500 to 1000 nM | CSc1nnc(NC(=O)c2onc3ccc(Nc4ccccc4)cc23)s1 [Compound 162, N-(5-(methylthio)-1,3,4-thiadiazol-2-yl)-5-(phenylamino)benzo[c]isoxazole-3-carboxamide]
≥ 1000 nM | COc1cccc2c1CCc1c-2noc1C(=O)Nc1nnc(SC)s1 [Compound 172, 6-Methoxy-N-(5-(methylthio)-1,3,4-thiadiazol-2-yl)-4,5-dihydronaphtho[1,2-c]isoxazole-3-carboxamide]
500 to 1000 nM | CSc1nnc(NC(=O)c2nc(-c3cnccn3)no2)s1 [Compound 71, N-(5-(methylthio)-1,3,4-thiadiazol-2-yl)-3-(pyrazin-2-yl)-1,2,4-oxadiazole-5-carboxamide]
100 to 500 nM | Cc1ccnc(-c2cc(C(=O)Nc3nnc(-c4ccccc4Cl)s3)on2)n1 [Compound 157, N-(5-(2-Chlorophenyl)-1,3,4-thiadiazol-2-yl)-3-(4-methylpyrimidin-2-yl)isoxazole-5-carboxamide]
500 to 1000 nM | O=C(Nc1nnc(-c2ccccc2C(F)F)s1)c1onc2ccccc12 [Compound 147, N-(5-(2-(difluoromethyl)phenyl)-1,3,4-thiadiazol-2-yl)benzo[c]isoxazole-3-carboxamide]
100 to 500 nM | CSc1nnc(NC(=O)c2cc(-c3cccc(=O)[nH]3)cc(=O)o2)s1 [Compound 276, N-(5-(methylthio)-1,3,4-thiadiazol-2-yl)-2-oxo-4-(6-oxo-1,6-dihydropyridin-2-yl)-2H-pyran-6-carboxamide]
500 to 1000 nM | CSc1nnc(NC(=O)c2nnc(N3CCCCC3c3ccccc3)o2)s1 (stereo not drawn) [Compound 149, N-(5-(methylthio)-1,3,4-thiadiazol-2-yl)-5-(2-phenylpiperidin-1-yl)-1,3,4-oxadiazole-2-carboxamide]

IC50 | SMILES
500 to 1000 nM | CSc1nnc(NC(=O)c2nnc(N3CCCC3CO)o2)s1 (stereo not drawn) [Compound 115, 5-[2-(hydroxymethyl)pyrrolidin-1-yl]-N-[5-(methylsulfanyl)-1,3,4-thiadiazol-2-yl]-1,3,4-oxadiazole-2-carboxamide]
< 100 nM | O=C(Nc1nnc(-c2ccccc2Cl)s1)c1ccc(O)c(=O)o1 [Compound 64, N-(5-(2-chlorophenyl)-1,3,4-thiadiazol-2-yl)-3-hydroxy-2-oxo-2H-pyran-6-carboxamide]
≥ 1000 nM | O=C(O)Cc1nnc(NC(=O)c2onc3ccccc23)s1 [Compound 132, [5-(2,1-benzoxazole-3-amido)-1,3,4-thiadiazol-2-yl]acetic acid]
100 to 500 nM | O=C(Nc1nnc(-c2ccccc2Cl)s1)c1cc(C2CC2)no1 [Compound 39, N-(5-(2-chlorophenyl)-1,3,4-thiadiazol-2-yl)-3-cyclopropylisoxazole-5-carboxamide]
500 to 1000 nM | CSc1nnc(NC(=O)c2cc(-c3ccsc3)no2)s1 [Compound 139, N-[5-(methylsulfanyl)-1,3,4-thiadiazol-2-yl]-3-(thiophen-3-yl)-1,2-oxazole-5-carboxamide]
500 to 1000 nM | CN(C)C(=O)c1cc(C(=O)Nc2nnc(-c3ccccc3Cl)s2)on1 [Compound 87, N5-(5-(2-chlorophenyl)-1,3,4-thiadiazol-2-yl)-N3,N3-dimethylisoxazole-3,5-dicarboxamide]
500 to 1000 nM | CSc1nnc(NC(=O)c2cc(-c3ccc(Cl)cc3)no2)s1 [Compound 50, 3-(4-chlorophenyl)-N-(5-(methylthio)-1,3,4-thiadiazol-2-yl)isoxazole-5-carboxamide]
≥ 1000 nM | O=C(Nc1nnc(-c2cn[nH]c2)s1)c1onc2ccccc12 [Compound 145, N-(5-(1H-pyrazol-4-yl)-1,3,4-thiadiazol-2-yl)benzo[c]isoxazole-3-carboxamide]
100 to 500 nM | O=C(Nc1nnc(-c2ccccc2Cl)s1)c1cc(-c2ccccc2)cc(=O)o1 [Compound 205, N-[5-(2-chlorophenyl)-1,3,4-thiadiazol-2-yl]-6-oxo-4-phenylpyran-2-carboxamide]
100 to 500 nM | CSc1nnc(NC(=O)c2cc(-c3ccc4ccccc4n3)cc(=O)o2)s1 [Compound 254, N-(5-methylsulfanyl-1,3,4-thiadiazol-2-yl)-6-oxo-4-(2-quinolyl)pyran-2-carboxamide]
100 to 500 nM | CSc1nnc(NC(=O)c2cc(C(=O)O)no2)s1 [Compound 16, 5-((5-(methylthio)-1,3,4-thiadiazol-2-yl)carbamoyl)isoxazole-3-carboxylic acid]
≥ 1000 nM | Cc1ccc(-c2nnc(NC(=O)c3onc4ccccc34)s2)cc1 [Compound 29, N-(5-(p-tolyl)-1,3,4-thiadiazol-2-yl)benzo[c]isoxazole-3-carboxamide]
100 to 500 nM | O=C(Nc1nnc(-c2ccccc2Cl)s1)c1ccno1 [Compound 6, N-(5-(2-chlorophenyl)-1,3,4-thiadiazol-2-yl)isoxazole-5-carboxamide]
500 to 1000 nM | CSc1nnc(NC(=O)c2nnc(Cc3ccccc3)o2)s1 [Compound 259, 5-benzyl-N-(5-methylsulfanyl-1,3,4-thiadiazol-2-yl)-1,3,4-oxadiazole-2-carboxamide]
100 to 500 nM | O=C(Nc1nnc(-c2ccccc2C(F)(F)F)s1)c1onc2ccccc12 [Compound 143, N-(5-(2-(trifluoromethyl)phenyl)-1,3,4-thiadiazol-2-yl)benzo[c]iso-xazole-3-carboxamide]
≥ 1000 nM | CSc1nnc(NC(=O)c2cc3ccccc3c(=O)o2)s1 [Compound 207, N-(5-(methylthio)-1,3,4-thiadiazol-2-yl)-1-oxo-1H-isochromene-3-carboxamide]
≥ 1000 nM | CSc1nnc(NC(=O)c2nnn(Cc3cccnc3)n2)s1 [Compound 135, N-(5-(methylthio)-1,3,4-thiadiazol-2-yl)-2-(pyridin-3-ylmethyl)-2H-tetrazole-5-carboxamide]
100 to 500 nM | CSc1nnc(NC(=O)c2nnc(N3CCCC3C(=O)O)o2)s1 (stereo not drawn) [Compound 111, 1-(5-{[5-(methylsulfanyl)-1,3,4-thiadiazol-2-yl]carbamoyl}-1,3,4-oxadiazol-2-yl)pyrrolidine-2-carboxylic acid]
≥ 1000 nM | CSc1nnc(NC(=O)c2cc(-c3ccns3)no2)s1 [Compound 140, N-[5-(methylsulfanyl)-1,3,4-thiadiazol-2-yl]-3-(1,2-thiazol-5-yl)-1,2-oxazole-5-carboxamide]
500 to 1000 nM | CNC(=O)c1cc(C(=O)Nc2nnc(-c3ccccc3Cl)s2)on1 [Compound 89, N5-(5-(2-chlorophenyl)-1,3,4-thiadiazol-2-yl)-N3-methylisoxazole-3,5-dicarboxamide]
100 to 500 nM | O=C(Nc1nnc(-c2ccccc2Cl)s1)c1cc(-c2ncc3ccccc3n2)no1 [Compound 155, N-(5-(2-Chlorophenyl)-1,3,4-thiadiazol-2-yl)-3-(quinazolin-2-yl)isoxazole-5-carboxamide]
